Where two headings read alike, the source gives them in different places.
How the values were obtained:
[1] = Metabolic stability in vitro, dog liver microsomes; assay type: in vitro ADME; details: maximal oral bioavailability calculated from microsomal half-life, 1 μM compound
Description: (§1) The metabolic stability of test compounds in vitro was determined by incubating them at 1 μM with a suspension of liver microsomes in 100 mM phosphate buffer, pH7.4 (NaH2PO4xH2O+Na2HPO4x2H2O) at a protein concentration of 0.5 mg/mL and at 37° C. The reaction was activated by adding a co-factor mix containing 1.2 mg NADP, 3 IU glucose-6-phosphate dehydrogenase, 14.6 mg glucose-6-phosphate and 4.9 mg MgCl2 in phosphate buffer, pH 7.4. Organic solvent in the incubations was limited to <0.2% dimethylsulfoxide (DMSO) and <1% methanol. During incubation, the microsomal suspensions were continuously shaken and aliquots were taken at 2, 8, 16, 30, 45 and 60 min, to which equal volumes of cold methanol were immediately added. Samples were frozen at −20° C. over night, subsequently centrifuged for 15 minutes at 3000 rpm and the supernatant was analyzed with an Agilent 1200 HPLC-system with LCMS/MS detection.
(§2) The half-life of a test compound was determined from the concentration-time plot. From the half-life the intrinsic clearances were calculated. Together with the additional parameters liver blood flow, specific liver weight and microsomal protein content the hepatic in vivo blood clearance (CL) and the maximal oral bioavailability (Fmax) were calculated for the different species. […]

[2] = Metabolic stability in vitro, human liver microsomes; assay type: in vitro ADME; details: maximal oral bioavailability calculated from microsomal half-life, 1 μM compound
Description: as §1, §2

human kinase Mps-1 = target: T1, human kinase Mps-1 (Homo sapiens, UniProt P33981); assay: Mps-1 kinase assay (TR-FRET); assay type: biochemical
T1 construct: N-terminally GST-tagged human full length recombinant Mps-1 kinase; GST (N); purchased Invitrogen, Karslruhe, Germany PV4071
T1 sequence (P33981 1-857): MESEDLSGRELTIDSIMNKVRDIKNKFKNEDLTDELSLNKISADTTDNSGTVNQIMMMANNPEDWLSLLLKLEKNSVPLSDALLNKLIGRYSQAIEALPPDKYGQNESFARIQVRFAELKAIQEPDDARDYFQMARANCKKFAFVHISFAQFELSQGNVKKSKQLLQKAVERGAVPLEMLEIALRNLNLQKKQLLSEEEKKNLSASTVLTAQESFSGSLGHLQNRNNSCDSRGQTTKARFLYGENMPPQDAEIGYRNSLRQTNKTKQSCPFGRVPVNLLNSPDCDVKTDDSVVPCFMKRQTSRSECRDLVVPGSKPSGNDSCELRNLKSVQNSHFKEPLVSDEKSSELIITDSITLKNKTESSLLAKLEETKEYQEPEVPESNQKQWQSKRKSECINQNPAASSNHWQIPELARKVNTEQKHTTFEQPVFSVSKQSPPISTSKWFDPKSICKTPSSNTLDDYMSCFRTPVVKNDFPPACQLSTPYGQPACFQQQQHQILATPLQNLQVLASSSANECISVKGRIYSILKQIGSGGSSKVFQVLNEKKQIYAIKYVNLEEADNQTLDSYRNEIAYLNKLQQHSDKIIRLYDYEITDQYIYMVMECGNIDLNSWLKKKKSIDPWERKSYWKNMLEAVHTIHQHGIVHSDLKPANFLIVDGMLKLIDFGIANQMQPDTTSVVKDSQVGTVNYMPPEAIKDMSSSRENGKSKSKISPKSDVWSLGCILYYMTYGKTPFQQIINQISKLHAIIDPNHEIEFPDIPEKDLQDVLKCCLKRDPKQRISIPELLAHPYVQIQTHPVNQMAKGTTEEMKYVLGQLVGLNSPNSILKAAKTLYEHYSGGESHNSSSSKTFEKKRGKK
Description: The human kinase Mps-1 phosphorylates a biotinylated substrate peptide. Detection of the phosphorylated product is achieved by time-resolved fluorescence resonance energy transfer (TR-FRET) from Europium-labelled anti-phospho-Serine/Threonine antibody as donor to streptavidin labelled with cross-linked allophycocyanin (SA-XLent) as acceptor. Compounds are tested for their inhibition of the kinase activity.
N-terminally GST-tagged human full length recombinant Mps-1 kinase (purchased from Invitrogen, Karslruhe, Germany, cat. no PV4071) was used. […]
The resulting mixture was incubated 1 h at 22° C. to allow the binding of the phosphorylated peptide to the anti-phospho(Ser/Thr)-Europium-antibody. Subsequently the amount of phosphorylated substrate was evaluated by measurement of the resonance energy transfer from the Europium-labelled anti-phospho(Ser/Thr) antibody to the Streptavidin-XLent. Therefore, the fluorescence emissions at 620 nm and 665 nm after excitation at 350 nm was measured in a Viewlux TR-FRET reader (PerkinElmer LAS, Rodgau-Jugesheinn, Germany). The “blank-corrected normalized ratio” (a Viewlux specific readout, similar to the traditional ratio of the emissions at 665 nm and at 622 nm, in which blank and Eu-donor crosstalk are subtracted from the 665 nm signal before the ratio is calculated) was taken as the measure for the amount of phosphorylated substrate. […]

[3] = system: HeLa human cervical tumor cells; assay: HeLa cell proliferation assay (crystal violet); assay type: cell-based; details: 96 h, 4 days incubation, crystal violet staining, read-out: Inhibition of cell proliferation, cell Line: HeLa IC50
Description: Cultivated tumor cells (MCF7, hormone dependent human mammary carcinoma cells, ATCC HTB22; NCI-H460, human non-small cell lung carcinoma cells, ATCC HTB-177; DU 145, hormone-independent human prostate carcinoma cells, ATCC HTB-81; HeLa-MaTu, human cervical carcinoma cells, EPO-GmbH, Berlin; HeLa-MaTu-ADR, multidrug-resistant human cervical carcinoma cells, EPO-GmbH, Berlin; HeLa human cervical tumor cells, ATCC CCL-2; B16F10 mouse melanoma cells, ATCC CRL-6475) were plated at a density of 5000 cells/well (MCF7, DU145, HeLa-MaTu-ADR), 3000 cells/well (NCI-H460, HeLa-MaTu, HeLa), or 1000 cells/well (B16F10) in a 96-well multititer plate in 200 μl of their respective growth medium supplemented 10% fetal calf serum. […] Cell proliferation was determined by staining the cells with crystal violet: the cells were fixed by adding 20 μl/measuring point of an 11% glutaric aldehyde solution for 15 minutes at room temperature. […] The extinction of the stained cells was determined by photometry at a wavelength of 595 nm. The change of cell number, in percent, was calculated by normalization of the measured values to the extinction values of the zero-point plate (=0%) and the extinction of the untreated (0 μm) cells (=100%). The […] values were determined by means of a 4 parameter fit using the company's own software. […]

[4] = Metabolic stability in vitro, rat liver microsomes; assay type: in vitro ADME; details: maximal oral bioavailability calculated from microsomal half-life, 1 μM compound
Description: as §1, §2

Dog liver microsomes; Fmax [%] [1]: 65%
Human liver microsomes; Fmax [%] [2]: 83%
IC50 (human kinase Mps-1; 10 μM ATP, read-out: Mps-1 Inhibition, IC50 (Assay with 10 μM ATP)): < 1 nM
IC50 (human kinase Mps-1; 2 mM ATP, read-out: Mps-1 Inhibition, IC50 (Assay with 2 mM ATP)): 1.6 nM
IC50 [3]: < 400 nM
Rat liver microsomes; Fmax [%] [4]: 96%
SMILES: COc1cc2c(cc1Nc1nc3ccc(-c4ccc(NC(=O)[C@H](C)c5ccc(F)cc5)cc4)cn3n1)CCS2(=O)=O [Example01.01, (2R)-2-(4-fluorophenyl)-N-(4-{2-[(6-methoxy-1,1-dioxido-2,3-dihydro-1-benzothiophen-5-yl)amino][1,2,4]triazolo[1,5-a]pyridin-6-yl}phenyl)propanamide]
